Experimental data published in patent US20230131559A1, “RECOMBINANT PEPTIDES THAT BIND TO A TUMOUR-SPECIFIC ANTIBODY FOR BREAST CANCER AND USE” (Universidade Federal de Uberlândia, priority 2019, published 2023).

Columns and labels:
FabC4 antibody fragment = assay: ELISA of synthetic peptides for binding to FabC4; conditions: 2.5 μg/well peptide, FabC4 1 ug, 492 nm
Experimental: Clones A5, A7, C4 and D6, which were able to discriminate the serum of individuals with BC from BBD and NC by Phage-ELISA, were chemically synthesized by GenScript USA Inc. To increase immunogenicity, the peptides were coupled to BSA. Enzyme immunoassays were conducted to assess the ability of FabC4 antibody to recognize these peptides.
(§1) A microtiter plate was sensitized with 2.5 μg/well of each of the peptides diluted in carbonate/bicarbonate buffer (50 mM pH 9.6) and kept for 16 hours at 4° C. After blocking with PBS1X-BSA3% (1 hour at 37° C.) a single wash with PBS1X preceded the addition of FabC4 (1 ug), incubated for 1 hour at 37° C. After washing with PBS1X, anti-HA antibody which was labeled with peroxidase (Roche Applied Science) diluted 1:5000 in PBS-BSA3% for 1 h at 37° C. was added. After washing with PBS1X, the reaction with the OPD SigmaFast® (Sigma-Aldrich) substrate, interrupted with H2SO4 (2N), was analyzed in a spectrophotometer at a length of 492 nm (TP-Reader ThermoPlate).

[1] = system: serum from 150 patients (BC, BBD, NC); assay: ELISA of synthetic peptides against serum of 150 patients (diagnostic ability); assay type: binding, human; conditions: serum from 150 patients (50 from each study group)
Experimental: as §1
The same conditions were used to analyze the diagnostic capacity of the peptides against the serum of the 150 patients previously described. Again, ANOVA and Mann Whitney tests were used for comparative purposes between groups with the aid of the GraphPad Prism 7.0 (GraphPad Software Inc.—La Jolla, Calif., USA) software. Values of P<0.05 were considered significant.

VMPAAKYSLRVL (listed as Homo sapiens) [pC4, chemically synthesized peptide expressed in phage C4]
absorbance, binding to FabC4 by ELISA (FabC4 antibody fragment): highest absorbance

VTPCSSFSSFLP (listed as Homo sapiens) [pD6, chemically synthesized peptide of clone D6]
reactivity between the samples [1]: differential reactivity between the samples
